Laboratory results reported in ChEMBL document CHEMBL1148126, “Triterpenoid constituents of Raulinoa echinata” (J Nat Prod, 2002).
Values after ≈ are worked out from the molar mass of the structure shown.

Columns and labels:
Trypanosoma cruzi = test: Antitrypanosomal activity against Trypanosoma cruzi Y trypomastigotes; assay type: functional, organism-based
[1] = Toxicity in Artemia salina; assay type: organism-based; conditions: in vivo, read-out: LD50 (the source's name)

SMILES	IC50 (Trypanosoma cruzi)	LC50 [1]
CNc1ccccc1C(=O)O[C@H]1CC[C@]2(C)[C@H]3CC[C@]45C[C@]4(CC[C@H]5[C@@H]4C[C@H]([C@H](O)C(C)(C)O)O[C@H]4OC)[C@]3(C)[C@H](O)C[C@H]2C1(C)C	> 1000 µg/mL	> 100 µg/mL
CO[C@H]1O[C@@H]([C@H](O)C(C)(C)OC)C[C@H]1[C@@H]1CC[C@]2(C)C3=CC[C@H]4C(C)(C)C(=O)CC[C@]4(C)[C@H]3CC[C@@]12C	114 µg/mL (≈ 222 µM)	> 100 µg/mL
CO[C@@H]1O[C@@H]([C@H](O)C(C)(C)OC)C[C@H]1[C@@H]1CC[C@]2(C)C3=CC[C@H]4C(C)(C)C(=O)CC[C@]4(C)[C@H]3CC[C@@]12C	135 µg/mL (≈ 261 µM)	> 100 µg/mL
CNc1ccccc1C(=O)O[C@H]1CC[C@]2(C)[C@H]3CC[C@]45C[C@]4(CC[C@H]5[C@@H]4C[C@H]([C@H](O)C(C)(C)O)OC4O)[C@]3(C)[C@H](O)C[C@H]2C1(C)C (stereo partly specified)	> 1000 µg/mL	> 100 µg/mL
CNc1ccccc1C(=O)O[C@H]1CC[C@]2(C)[C@H]3CC[C@]45C[C@]4(CC[C@H]5[C@@H]4C[C@H]([C@H](O)C(C)(C)O)O[C@@H]4OC)[C@]3(C)[C@H](O)C[C@H]2C1(C)C	> 1000 µg/mL	> 100 µg/mL
CN(C)c1ccc(C(=C2C=CC(=[N+](C)C)C=C2)c2ccc(N(C)C)cc2)cc1.[Cl-] [GENTIAN VIOLET]	7.5 µg/mL	–
